Columns and labels:
Experiment in all cases: cells
SCC-25 = type: functional, cell-based, Homo sapiens; settings: Homo sapiens, SCC-25;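 also: growth inhibition of SCC-25 cells, measured with a cell viability assay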
Description: SANGER: Inhibition of human SCC-25 cell growth in a cell viability assay.

FTC-133 = type: functional, cell-based, Homo sapiens; settings: Homo sapiens, FTC-133
COLO-678 = type: functional, cell-based, Homo sapiens; settings: Homo sapiens, COLO-678
Description: SANGER: Inhibition of human COLO-678 cell growth in a cell viability assay.

BHT-101 = type: functional, cell-based, Homo sapiens; settings: Homo sapiens, BHT-101
Description: SANGER: Inhibition of human BHT-101 cell growth in a cell viability assay.

RPMI-7951 = type: functional, cell-based, Homo sapiens; settings: Homo sapiens, RPMI-7951
Description: SANGER: Inhibition of human RPMI-7951 cell growth in a cell viability assay.

TE-10 = type: functional, cell-based, Homo sapiens; settings: Homo sapiens, TE-10;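 also: growth inhibition of TE-10 cells, measured by a cell viability assay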
Description: SANGER: Inhibition of human TE-10 cell growth in a cell viability assay.

CAL-85-1 = type: functional, cell-based; settings: Homo sapiens;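 also: growth inhibition of human CAL-85-1 cells, read out with a cell viability assay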
Description: SANGER: Inhibition of human CAL-85-1 cell growth in a cell viability assay.

Detroit 562 = type: functional, cell-based, Homo sapiens; settings: Homo sapiens, Detroit 562;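 also: growth inhibition of human Detroit 562 cells, read out by a cell viability assay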
Description: SANGER: Inhibition of human Detroit562 cell growth in a cell viability assay.

MKN-28 = type: functional, cell-based, Homo sapiens; settings: Homo sapiens, MKN-28;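 also: cell viability assay read-out, IC50 reflects suppression of growth of human MKN-28 cells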
Description: SANGER: Inhibition of human MKN28 cell growth in a cell viability assay.

RT-112 = type: functional, cell-based, Homo sapiens; settings: Homo sapiens, RT-112
Description: SANGER: Inhibition of human RT-112 cell growth in a cell viability assay.

NCI-H747 = type: functional, cell-based; settings: Homo sapiens;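 also: growth inhibition of human NCI-H747 cells, read out by a cell viability assay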
Description: SANGER: Inhibition of human NCI-H747 cell growth in a cell viability assay.

T47D = type: functional, cell-based, Homo sapiens; settings: Homo sapiens, T47D;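 also: growth inhibition of human T47D cells, measured with a cell viability assay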
Description: SANGER: Inhibition of human T47D cell growth in a cell viability assay.

P12-Ichikawa = type: functional, cell-based; settings: Homo sapiens
MKN-45 = type: functional, cell-based, Homo sapiens; settings: Homo sapiens, MKN-45;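 also: growth inhibition of human MKN-45 cells, measured with a cell viability assay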
Description: SANGER: Inhibition of human MKN45 cell growth in a cell viability assay.

SW780 = type: functional, cell-based, Homo sapiens; settings: Homo sapiens, SW780;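 also: growth inhibition of the cells, read out with a cell viability assay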
Description: SANGER: Inhibition of human SW780 cell growth in a cell viability assay.

LNCaP-Clone-FGC = type: functional, cell-based, Homo sapiens; settings: Homo sapiens, LNCaP-Clone-FGC
Description: SANGER: Inhibition of human LNCaP-Clone-FGC cell growth in a cell viability assay.

MDA-MB-453 = type: functional, cell-based, Homo sapiens; settings: Homo sapiens, MDA-MB-453
Description: SANGER: Inhibition of human MDA-MB-453 cell growth in a cell viability assay.

KS-1 = type: functional, cell-based, Homo sapiens; settings: Homo sapiens, KS-1;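 also: growth inhibition of KS-1 cells, read out with a cell viability assay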
Description: SANGER: Inhibition of human KS-1 cell growth in a cell viability assay.

PC-14 = type: functional, cell-based, Homo sapiens; settings: Homo sapiens, PC-14;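 also: cell viability assay measuring inhibition of PC-14 cell growth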
Description: SANGER: Inhibition of human PC-14 cell growth in a cell viability assay.

K5 = type: functional, cell-based, Homo sapiens; settings: Homo sapiens, K5
Description: SANGER: Inhibition of human K5 cell growth in a cell viability assay.

KG-1 = type: functional, cell-based; settings: Homo sapiens;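 also: growth inhibition of KG-1 cells, read out by a cell viability assay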
Description: SANGER: Inhibition of human KG-1 cell growth in a cell viability assay.

SAS = type: functional, cell-based, Homo sapiens; settings: Homo sapiens, SAS;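 also: growth inhibition of SAS cells, read out with a cell viability assay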
Description: SANGER: Inhibition of human SAS cell growth in a cell viability assay.

NCI-H2170 = type: functional, cell-based, Homo sapiens; settings: Homo sapiens, NCI-H2170;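 also: cell viability assay measuring growth inhibition of human NCI-H2170 cancer cells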
Description: SANGER: Inhibition of human NCI-H2170 cell growth in a cell viability assay.

ES5 = type: functional, cell-based, Homo sapiens; settings: Homo sapiens, ES5;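 also: growth inhibition of human ES5 cells, read out by a cell viability assay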
Description: SANGER: Inhibition of human ES5 cell growth in a cell viability assay.

SF-268 = type: functional, cell-based, Homo sapiens; settings: Homo sapiens, SF-268;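 also: growth inhibition of SF-268 cells determined with a cell viability assay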
Description: SANGER: Inhibition of human SF268 cell growth in a cell viability assay.

ES3 = type: functional, cell-based, Homo sapiens; settings: Homo sapiens, ES3;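 also: growth inhibition of ES3 cells, read out with a cell viability assay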
Description: SANGER: Inhibition of human ES3 cell growth in a cell viability assay.

SCC-9 = type: functional, cell-based, Homo sapiens; settings: Homo sapiens, SCC-9;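 also: Read-out is a cell viability assay, with values giving inhibition of cell growth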
Description: SANGER: Inhibition of human SCC-9 cell growth in a cell viability assay.

KGN = type: functional, cell-based, Homo sapiens; settings: Homo sapiens, KGN;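 also: growth inhibition of KGN cells, read out with a cell viability assay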
Description: SANGER: Inhibition of human KGN cell growth in a cell viability assay.

NCI-H510A = type: functional, cell-based; settings: Homo sapiens;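 also: growth inhibition of NCI-H510A cells, read out with a cell viability assay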
Description: SANGER: Inhibition of human NCI-H510A cell growth in a cell viability assay.

KOSC-2 = type: functional, cell-based, Homo sapiens; settings: Homo sapiens, KOSC-2;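 also: growth inhibition of KOSC-2 cells, read out by a cell viability assay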
Description: SANGER: Inhibition of human KOSC-2 cell growth in a cell viability assay.

BHY = type: functional, cell-based, Homo sapiens; settings: Homo sapiens, BHY;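 also: cell growth inhibition read out by a viability assay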
Description: SANGER: Inhibition of human BHY cell growth in a cell viability assay.

LS-123 = type: functional, cell-based, Homo sapiens; settings: Homo sapiens, LS-123
Description: SANGER: Inhibition of human LS-123 cell growth in a cell viability assay.

JAR = type: functional, cell-based, Homo sapiens; settings: Homo sapiens, JAR;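 also: growth inhibition of human JAR cells determined with a cell viability assay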
Description: SANGER: Inhibition of human JAR cell growth in a cell viability assay.

CAS-1 = type: functional, cell-based, Homo sapiens; settings: Homo sapiens, CAS-1;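 also: growth inhibition of CAS-1 cells, measured with a cell viability assay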
Description: SANGER: Inhibition of human CAS-1 cell growth in a cell viability assay.

KY821 = type: functional, cell-based; settings: Homo sapiens;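 also: growth inhibition of human KY821 cells, read out by a cell viability assay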
Description: SANGER: Inhibition of human KY821 cell growth in a cell viability assay.

VMRC-RCZ = type: functional, cell-based; settings: Homo sapiens;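 also: growth inhibition measured with a cell viability assay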
Description: SANGER: Inhibition of human VMRC-RCZ cell growth in a cell viability assay.

NOMO-1 = type: functional, cell-based; settings: Homo sapiens;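 also: growth inhibition of human NOMO-1 cells measured by a cell viability assay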
Description: SANGER: Inhibition of human NOMO-1 cell growth in a cell viability assay.

Capan-2 = type: functional, cell-based, Homo sapiens; settings: Homo sapiens, Capan-2;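 also: Capan-2 cell growth inhibition, read out with a viability assay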
Description: SANGER: Inhibition of human Capan-2 cell growth in a cell viability assay.

RXF 393 = type: functional, cell-based; settings: Homo sapiens;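 also: growth inhibition of human RXF 393 cells, read out with a cell viability assay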
Description: SANGER: Inhibition of human RXF393 cell growth in a cell viability assay.

KE-37 = type: functional, cell-based; settings: Homo sapiens;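 also: growth inhibition of KE-37 cells, read out with a cell viability assay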
Description: SANGER: Inhibition of human KE-37 cell growth in a cell viability assay.

GAK = type: functional, cell-based, Homo sapiens; settings: Homo sapiens, GAK;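 also: cell growth inhibition read out by a cell viability assay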
Description: SANGER: Inhibition of human GAK cell growth in a cell viability assay.

A 172 = type: functional, cell-based, Homo sapiens; settings: Homo sapiens, A 172;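 also: growth inhibition of A172 cells, measured with a cell viability readout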
Description: SANGER: Inhibition of human A172 cell growth in a cell viability assay.

MDA-MB-361 = type: functional, cell-based, Homo sapiens; settings: Homo sapiens, MDA-MB-361
NKM-1 = type: functional, cell-based; settings: Homo sapiens;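 also: growth inhibition of NKM-1 cells, read out with a cell viability assay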
Description: SANGER: Inhibition of human NKM-1 cell growth in a cell viability assay.

RH-1 = type: functional, cell-based, Homo sapiens; settings: Homo sapiens, RH-1;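 also: growth inhibition of human RH-1 cells, read out with a cell viability assay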
Description: SANGER: Inhibition of human RH-1 cell growth in a cell viability assay.

MZ7-mel = type: functional, cell-based, Homo sapiens; settings: Homo sapiens, MZ7-mel;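 also: growth inhibition of human MZ7-mel cells, measured by a cell viability assay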
Description: SANGER: Inhibition of human MZ7-mel cell growth in a cell viability assay.

KALS-1 = type: functional, cell-based, Homo sapiens; settings: Homo sapiens, KALS-1;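 also: growth inhibition of KALS-1 cells, determined with a cell viability assay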
Description: SANGER: Inhibition of human KALS-1 cell growth in a cell viability assay.

RKO = type: functional, cell-based, Homo sapiens; settings: Homo sapiens, RKO;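 also: growth inhibition of human RKO cells, read out with a cell viability assay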
Description: SANGER: Inhibition of human RKO cell growth in a cell viability assay.

AM-38 = type: functional, cell-based, Homo sapiens; settings: Homo sapiens, AM-38;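 also: growth inhibition of AM-38 cells of human origin, read out by a cell viability assay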
Description: SANGER: Inhibition of human AM-38 cell growth in a cell viability assay.

ONS-76 = type: functional, cell-based, Homo sapiens; settings: Homo sapiens, ONS-76;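 also: growth inhibition of human ONS-76 cells, read out with a cell viability assay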
Description: SANGER: Inhibition of human ONS-76 cell growth in a cell viability assay.

LB771-HNC = type: functional, cell-based, Homo sapiens; settings: Homo sapiens, LB771-HNC;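 also: growth inhibition of LB771-HNC human cells, read out with a cell viability assay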
Description: SANGER: Inhibition of human LB771-HNC cell growth in a cell viability assay.

NCI-H23 = type: functional, cell-based, Homo sapiens; settings: Homo sapiens, NCI-H23;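 also: cell viability assay measuring growth inhibition of NCI-H23 cells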
Description: SANGER: Inhibition of human NCI-H23 cell growth in a cell viability assay.

For `Nc1ccn([C@@H]2O[C@H](CO)[C@@H](O)[C@@H]2O)c(=O)n1` [CYTARABINE], the IC50 (SCC-25) was over 2000 nM, the IC50 (FTC-133) was 1390 nM and the IC50 (COLO-678) was over 2000 nM. It also gave an IC50 (BHT-101) of 41.8 nM, an IC50 (RPMI-7951) of 340 nM and an IC50 (TE-10) of over 2000 nM. For the same compound, the IC50 (CAL-85-1) was over 2000 nM, the IC50 (Detroit 562) was over 2000 nM and the IC50 (MKN-28) was over 2000 nM. The IC50 (RT-112) was 502 nM, the IC50 (NCI-H747) was over 2000 nM and the IC50 (T47D) was over 2000 nM. It also gave an IC50 (P12-Ichikawa) of 5.54 nM, an IC50 (MKN-45) of 1650 nM and an IC50 (SW780) of 1320 nM. It also gave an IC50 (LNCaP-Clone-FGC) of 1310 nM, an IC50 (MDA-MB-453) of over 2000 nM and an IC50 (KS-1) of over 2000 nM. It also gave an IC50 (PC-14) of 610 nM, an IC50 (K5) of 43.2 nM and an IC50 (KG-1) of 1160 nM. It also gave an IC50 (SAS) of 108 nM, an IC50 (NCI-H2170) of over 2000 nM and an IC50 (ES5) of 243 nM. It also gave an IC50 (SF-268) of 1360 nM, an IC50 (ES3) of 199 nM and an IC50 (SCC-9) of over 2000 nM. It also gave an IC50 (KGN) of over 2000 nM, an IC50 (NCI-H510A) of 68.3 nM and an IC50 (KOSC-2) of 643 nM. For the same compound, the IC50 (BHY) was 898 nM, the IC50 (LS-123) was over 2000 nM and the IC50 (JAR) was 338 nM. The IC50 (CAS-1) was over 2000 nM, the IC50 (KY821) was over 2000 nM and the IC50 (VMRC-RCZ) was 1350 nM. The IC50 (NOMO-1) was over 2000 nM, the IC50 (Capan-2) was over 2000 nM and the IC50 (RXF 393) was 700 nM. The IC50 (KE-37) was 111 nM, the IC50 (GAK) was over 2000 nM and the IC50 (A 172) was over 2000 nM. For the same compound, the IC50 (MDA-MB-361) was over 2000 nM, the IC50 (NKM-1) was 1060 nM and the IC50 (RH-1) was 328 nM. For the same compound, the IC50 (MZ7-mel) was 417 nM, the IC50 (KALS-1) was over 2000 nM and the IC50 (RKO) was 599 nM. It also gave an IC50 (AM-38) of 1470 nM, an IC50 (ONS-76) of 390 nM and an IC50 (LB771-HNC) of over 2000 nM. For the same compound, the IC50 (NCI-H23) was 1200 nM.
For `CC(=O)O[C@@]12CO[C@@H]1C[C@H](O)[C@@]1(C)C(=O)[C@H](O)C3=C(C)[C@@H](OC(=O)[C@H](O)[C@@H](NC(=O)OC(C)(C)C)c4ccccc4)C[C@@](O)([C@@H](OC(=O)c4ccccc4)[C@H]21)C3(C)C` [DOCETAXEL], the IC50 (SCC-25) was 0.68 nM, the IC50 (FTC-133) was 0.489 nM and the IC50 (COLO-678) was over 10 nM. It also gave an IC50 (BHT-101) of 9.8 nM, an IC50 (RPMI-7951) of 0.448 nM and an IC50 (TE-10) of 2.54 nM. For the same compound, the IC50 (CAL-85-1) was over 10 nM, the IC50 (Detroit 562) was 0.902 nM and the IC50 (MKN-28) was 3.17 nM. For the same compound, the IC50 (RT-112) was 1.19 nM, the IC50 (NCI-H747) was over 10 nM and the IC50 (T47D) was 4.31 nM. For the same compound, the IC50 (P12-Ichikawa) was 0.745 nM, the IC50 (MKN-45) was 4.53 nM and the IC50 (SW780) was 0.587 nM. It also gave an IC50 (LNCaP-Clone-FGC) of 1.1 nM, an IC50 (MDA-MB-453) of 4.51 nM and an IC50 (KS-1) of 1.44 nM. For the same compound, the IC50 (PC-14) was 2.09 nM, the IC50 (K5) was 0.778 nM and the IC50 (KG-1) was over 10 nM. The IC50 (SAS) was 1.34 nM, the IC50 (NCI-H2170) was 5.35 nM and the IC50 (ES5) was 0.91 nM. For the same compound, the IC50 (SF-268) was 1.21 nM, the IC50 (ES3) was 2.77 nM and the IC50 (SCC-9) was 1.32 nM. The IC50 (KGN) was 2.47 nM, the IC50 (NCI-H510A) was 0.336 nM and the IC50 (KOSC-2) was 0.255 nM. For the same compound, the IC50 (BHY) was 2.16 nM, the IC50 (LS-123) was 4.25 nM and the IC50 (JAR) was 4.37 nM. The IC50 (CAS-1) was over 10 nM, the IC50 (KY821) was 5.51 nM and the IC50 (VMRC-RCZ) was 2.52 nM. For the same compound, the IC50 (NOMO-1) was 5.13 nM, the IC50 (Capan-2) was over 10 nM and the IC50 (RXF 393) was 2.22 nM. The IC50 (KE-37) was over 10 nM, the IC50 (GAK) was over 10 nM and the IC50 (A 172) was 1.63 nM. For the same compound, the IC50 (MDA-MB-361) was 2.81 nM, the IC50 (NKM-1) was over 10 nM and the IC50 (RH-1) was 0.386 nM. For the same compound, the IC50 (MZ7-mel) was over 10 nM, the IC50 (KALS-1) was 1.81 nM and the IC50 (RKO) was 0.989 nM. The IC50 (AM-38) was over 10 nM, the IC50 (ONS-76) was 3.22 nM and the IC50 (LB771-HNC) was over 10 nM. It also gave an IC50 (NCI-H23) of 3.64 nM.

Reference: ChEMBL document CHEMBL1201861, “Genomics of Drug Sensitity in Cancer screening data, Wellcome Trust Sanger Institute”
